From US20240209445A1, “A CONTINUOUS METRIC TO MEASURE ENDOTYPE AND CORTICOSTEROID INTERACTION IN SEPTIC SHOCK” (CHILDREN'S HOSPITAL MEDICAL CENTER, priority 2021, published 2024)

Assay: Validation in adult cohort of the VANISH trial randomized to hydrocortisone or placebo (n=97)
Assay type: in vivo, human
Conditions: adult VANISH subset; controlled for illness severity using the APACHE score; lower Z values
Method: The model was also tested using a publicly available transcriptomic data set from the Vasopressin vs. Norepinephrine as Initial Therapy for Septic Shock (VANISH) trial (9, 23). The VANISH trial compared the efficacy of vasopressin to norepinephrine as initial vasopressor therapy for septic shock among adults. Patients who reached a prespecified dose of either vasopressor were further randomized to receive hydrocortisone or placebo. Details of the procedures for assigning the cohort randomized to hydrocortisone or placebo to pediatric endotypes A or B were previously described (10, 15).
The findings above were further validated using a subset of adult subjects from the VANISH trial who were randomized to placebo or hydrocortisone, and for whom there existed publicly available transcriptomic data (n=97). […] The model supports that separation between groups treated with hydrocortisone and those treated with placebo occurs as the Z value decreases.

Question: For `C[C@]12CCC(=O)C=C1CC[C@@H]1[C@@H]2[C@@H](O)C[C@@]2(C)[C@H]1CC[C@]2(O)C(=O)CO` [hydrocortisone], which “Odds of death at 28 days by hydrocortisone exposure and Z value” is on record?
Answer: no hydrocortisone exposure and lower Z values tended to have lower odds of death at 28 days
